“And” between values parts separate entries of the source, which are not always exact repeats. Equal values may be shown once. “Also recorded” adds a separate entry of the source.
Assays:
[1] = test system: isolated rat liver mitochondria; assay: FACS analysis of ΔΨm and ROS in isolated mitochondria
Method: Measurement of ΔΨm and ROS Production by FACS Analysis. ΔΨm and ROS production were measured by FACScan (Becton Dickinson, San Jose, Calif.) analysis. Freshly isolated rat mitochondria were resuspended in respiration buffer (50-100 μg/ml) and then incubated for 15 min at 37° C. with 50 nM 3,3′-dihexyloxacarbocyanine iodide [DiOC6(3)],2 μM dihydroethidium (HE), or 5 μM 2′,7′-dichlorofluorescin diacetate (H2DCFDA; Molecular Probes Inc.) (Cathcart et al., Anal. Biochem., 134, 111-116 (1983); Carter et al., J. Leukoycte Biol, 55, 253-258 (1994); Zamzami et al., J. Exp. Med., 181 1661-1672 (1995)). Mitochondria were then treated with DCA (100 μM) or PhAsO (80 μM) for 5 min and analyzed by cytofluorometry. For the coincubation studies, mitochondria were preincubated with UDCA (500 μM) or HDCA (500 μM) prior to the addition of either DCA or PhAsO.

[2] = test system: isolated rat liver mitochondria; assay: MPT spectrophotometric assay (mitochondrial swelling); conditions: for effect on DCA-induced MPT / mitochondrial swelling: preincubation (500 μM bile acid or cyclosporine A) before DCA; for mitochondrial swelling with the substance alone: substance alone added to isolated mitochondria
Method: Isolation of mitochondria and MPT assays. Low calcium liver mitochondria were isolated from male 200-250 g Sprague-Dawley rats by density gradient centrifugation as previously published (Botla et al., J. Pharmacol. Exp. Ther., 272, 930-938 (1995); Walajtys-Rhode et al., J. Biol. Chem., 267, 370-379 (1992); and Sokol et al., Gastroenterology, 99, 1061-1071 (1990)). The mitochondrial fraction was resuspended in 30 ml of wash buffer containing 0.1 M KCl, 5 mM 3-(N-morpholino)-propane sulfonic acid (MOPS), and 1 mM EGTA, at pH 7.4 and centrifuged at 7,000×g for 10 min at 4° C. A final wash was carried out in chelex-100-treated buffer (Bio-Rad Laboratories, Hercules, Calif.) containing no EGTA. The resulting pellet was suspended in 4 ml of chelex--100-treated buffer containing 125 mM sucrose, 5 mM HEPES, 50 mM KCl and 2 mM KH2PO4. The usual yield of mitochondria was approximately 25 mg of protein per gram of liver tissue. Mitochondrial purity was established as previously described (Botla et al., J. Pharmacol. Exp. Ther., 272, 930-938 (1995)). Protein concentrations were determined using the Bio-Rad protein assay kit as specified by the manufacturer.
MPT was measured spectrophotometrically as described previously (Botla et al., J. Pharmacol. Exp. Ther., 272, 930-938 (1995); Pastorino et al., J. Biol. Chem., 268, 13791-13798 (1993)), during 10 min incubations at 25° C. using mitochondria (1 mg of protein/ml) suspended in 3 ml of a chelex-100-treated buffer containing 0.1 M NaCl, 10 mM MOPS, pH 7.4. Swelling was monitored at 540 nm in a Beckman DU 64 spectrophotometer. Basal values of mitochondria absorbance were measured for 5 min, and the optical density was monitored another 5 min after addition of 200 μM DCA or 80 μM phenylarsine oxide (PhAsO; Sigma Chemical Co.). For coincubation studies, mitochondria were preincubated with 500 μM UDCA or hyodeoxycholic acid for 5 min at 25° C. prior to the assay.
Spectrophotometric and Fluorimetric Assays of MPT. The MPT was assessed using a spectrophotometric assay measuring high amplitude rapid changes in mitochondrial volume, and a fluorimetric assay quantitating the release of calcein from calcein-loaded mitochondria. The MPT was measured spectrophotometrically as previously described (Pastorino, J. Biol. Chem., 268, 13791-13798 (1993); Botla et al., J. Pharmacol. Exp. Ther., 272, 930-938 (1995)). Briefly, mitochondria (3 mg protein) were incubated in 3 ml of chelex-100-treated respiration buffer (0.1 M NaCl, 10 mM MOPS, pH 7.4) for 10 min at 25° C. and monitored at 540 nm in a Beckman DU 64 spectrophotometer. Basal values of mitochondrial absorbance were measured for 5 min, and the optical density was monitored for an additional 5 min after addition of increasing concentrations of DCA (50-200 μM) or 80 μM phenylarsine oxide (PhAsO; Sigma Chemical Co., St. Louis, Mo.). For the coincubation studies, mitochondria were preincubated with UDCA (100-500 μM), or 500 μM hyodeoxycholic acid (HDCA; Sigma Chemical Co.) for 5 min at 25° C. prior to initiation of the assay.
Measurement of MPT and determination of cytochrome c content in supernatants and mitochondrial pellets after MPT. The MPT was assessed using a spectrophotometric assay measuring high amplitude rapid changes in mitochondria volume. Mitochondria (1 mg protein) were incubated in 1 ml of chelex-100-treated respiration buffer (0.1 M NaCl, 10 mM MOPS, pH 7.4) for 10 min at 25° C. and swelling was monitored at 540 nm in a Beckman DU 64 spectrophotometer. Malate and glutamate (1 mM) were added to initiate respiration, and 3 min later rotenone (5 μM), an inhibitor of complex I of the respiratory chain, was also added to the supension. Basal values of mitochondria absorbance were measured for 5 min, and the optical density was monitored for an additional 5 min after addition 200 μM DCA or 80 μM phenylarsine oxide (PhAsO; Sigma Chemical Co.). […]

HuH-7 cells = assay: Annexin V-biotin assay (phosphatidylserine externalization); assay type: cell-based, human; conditions: 100 μM, 6 h
Method: Annexin V-Biotin assay. The annexin V-biotin apoptosis assay was performed on HuH-7 cells according to the manufacturer's recommendations (R & D Systems). […] The chromogenic signal generated from the binding of annexin V to exposed phosphatidylserine moieties was read at 450 nm using a microplate reader (Molecular Devices, Co., Menlo Park, Calif.).

[3] = 100 μM DCA alone or 500 μM UDCA alone

## C[C@H](CCC(=O)O)[C@H]1CC[C@H]2[C@@H]3CC[C@@H]4C[C@H](O)CC[C@]4(C)[C@H]3C[C@H](O)[C@]12C [DCA, deoxycholic acid]
[1]; 100 μM DCA alone
  other ROS (peroxides, H2DCFDA): 21.7±3.5%
[1]; [3]
  superoxide anion production: 20.7±2.4%
[1]; 100 μM DCA alone, 5 min
  percentage of low ΔΨm: 16.0±1.8%
[2]
  concentration at which high amplitude mitochondrial swelling was detected (as low as): 50 µM
[2]; 50 μM DCA
  MPT, increase over control: 4 fold
HuH-7 cells
  optical density at 450 nm (annexin V binding) relative to controls: 0.27±0.06

## C[C@H](CCC(=O)O)[C@H]1CC[C@H]2[C@@H]3[C@@H](O)C[C@@H]4C[C@H](O)CC[C@]4(C)[C@H]3CC[C@]12C [UDCA, ursodeoxycholic acid]
[1]; 80 μM PhAsO + 500 μM UDCA
  reduction of ROS production of peroxides: 55%
  reduction of ROS production of superoxide anions: 100%
[1]; 80 μM PhAsO + 500 μM UDCA versus PhAsO alone
  reduction of ΔΨm disruption: approximately 65%
[1]; 100 μM DCA + 500 μM UDCA
  other ROS (peroxides, H2DCFDA): 14.7±1.4%
  percentage of low ΔΨm: 10.3±0.7%
  superoxide anion production: 15.9±1.5%
[1]; [3]
  superoxide anion production: 11.8±2.8%
[2]; 100 μM UDCA 5 min before 200 μM DCA
  swelling: 26.8±6.3%
[2]; 200 μM DCA, pretreatment 500 μM UDCA or 5 μM cyclosporine A
  inhibition of DCA-induced MPT (mitochondrial swelling): > 40% and 43.1±1.6%
[2]; 500 μM UDCA 5 min before 200 μM DCA
  swelling: 16.9±2.3%
HuH-7 cells
  optical density at 450 nm (annexin V binding) relative to controls: 0.08±0.02

## C[C@H](CCC(=O)O)[C@H]1CC[C@H]2[C@@H]3C[C@H](O)[C@@H]4C[C@H](O)CC[C@]4(C)[C@H]3CC[C@]12C [hyodeoxycholic acid]
[1]; 100 μM DCA, 500 μM bile acid pretreatment, listed as HDCA
  effect on DCA-mediated changes in ΔΨm and ROS production: did not prevent DCA-mediated changes; also recorded: does not significantly inhibit
[1]; 500 μM HDCA alone
  ΔΨm and ROS with HDCA alone: no changes were observed
[2]
  effect on DCA-induced MPT / mitochondrial swelling: nor did it have a protective effect
  mitochondrial swelling with the substance alone: No significant mitochondrial swelling
[2]; listed as HDCA
  effect on DCA-induced MPT / mitochondrial swelling: did not decrease DCA-induced mitochondrial swelling

## C=C1[C@@H](O)[C@@H]2O[C@]3(CC[C@H](/C=C/[C@@H](C)[C@@H]4CC(C)=C[C@@]5(O[C@H](C[C@@](C)(O)C(=O)O)CC[C@H]5O)O4)O3)CC[C@H]2O[C@@H]1[C@@H](O)C[C@H](C)[C@H]1O[C@@]2(CCCCO2)CC[C@H]1C [okadaic acid]
[2]
  mitochondrial swelling with the substance alone: did not induce mitochondria swelling

## TGF-β1: transforming growth factor β1, nonmembrane damaging inducer of apoptosis
[2]
  mitochondrial swelling with the substance alone: did not induce mitochondria swelling
